These results are taken from US12403137B2, “Compounds and methods of use” (Tango Therapeutics, Inc., priority 2019, dated 2025).

Experiment [1] addresses T1, PRMT5 (Homo sapiens, UniProt O14744).
T1 construct: purchased Viva (custom protein)
The experiment in a line: PRMT5 inhibition assay with SAM as cofactor. The class given is biochemical. Particulars: against PRMT5 in the presence of SAM as cofactor. An excerpt:
(§1) The Ki values can be calculated from the IC50 values as described in the Examples section. As detailed in the Examples section, for the assay performed in the presence of SAM, IC50=Ki×1.5 (Ki=IC50/1.5). For the assay performed in the presence of MTA, IC50=Ki×13.5 (Ki=IC50/13.5). Column 6 indicates the ratio between the Ki of compounds in the presence of SAM and the Ki of compounds in the presence of MTA

Experiment [2] deals with T1, PRMT5. The experiment in a line: PRMT5 inhibition assay with no cofactor. Particulars: against PRMT5 with no cofactor; read-out: No Co-factor IC50. The class given is biochemical.
Experiment [3] concerns the target T1, PRMT5. Put plainly: PRMT5 inhibition assay with MTA as cofactor. The class given is biochemical. Particulars: for IC50: against PRMT5 with MTA as cofactor; for SAM/MTA Ratio: ratio of Ki in the presence of SAM to Ki in the presence of MTA, Ki=IC50/1.5 (SAM), Ki=IC50/13.5 (MTA).
Text: as §1

The subject of experiment [4] is HAP1 MTAP-intact cell line. The experiment in a line: SDMA in-cell western assay, HAP1 MTAP-intact. The class given is cell-based. Particulars: Homo sapiens. On the procedure:
(§2) Table 1 also indicates IC50 values in an MTAP-isogenic cell line pair for exemplary compounds in an SDMA in-cell western assay (columns 7-8). HAP1 MTAP-intact is a cell line in which endogenous levels of MTAP are expressed, and HAP1 MTAP-deleted is an MTAP-null cell line. For Table 1, “a*” and “aa*” indicates an IC50 of <1 μM, “b*” and “bb*” indicates an IC50 equal to or greater than 1 μM but less than 10 μM, and “c*” and “cc*” indicates an IC50 of greater than or equal to 10 μM in the HAP1 MTAP-intact and the HAP1 MTAP-deleted assays, respectively. In column 9, “A*” indicates an IC50 ratio greater than or equal to 10 fold between the IC50 in the HAP1 MTAP-intact cell line and the HAP1 MTAP-deleted cell line; “B*” indicates an IC50 ratio greater than or equal to 3 fold but lower than 10 fold between the IC50 in the HAP1 MTAP-intact cell line and the HAP1 MTAP-deleted cell line; “C*” indicates an IC50 ratio of less than 3 fold between the IC50 in the HAP1 MTAP-intact cell line and the HAP1 MTAP-deleted cell line. Compounds with a ratio in the SDMA in-cell western assay of equal to or greater than 3 fold are considered MTAP-selective.

For experiment [5], the system named is HAP1 MTAP-deleted cell line. The experiment in a line: SDMA in-cell western assay, HAP1 MTAP-deleted. The class given is cell-based. Conditions: for IC50: Homo sapiens, HAP1 MTAP-deleted (MTAP-null) cell line; for MTAP Intact/Deleted Ratio: IC50 ratio HAP1 MTAP-intact / HAP1 MTAP-deleted, >=3 fold considered MTAP-selective. On the procedure:
as §2

T1 sequence (O14744 whole entry): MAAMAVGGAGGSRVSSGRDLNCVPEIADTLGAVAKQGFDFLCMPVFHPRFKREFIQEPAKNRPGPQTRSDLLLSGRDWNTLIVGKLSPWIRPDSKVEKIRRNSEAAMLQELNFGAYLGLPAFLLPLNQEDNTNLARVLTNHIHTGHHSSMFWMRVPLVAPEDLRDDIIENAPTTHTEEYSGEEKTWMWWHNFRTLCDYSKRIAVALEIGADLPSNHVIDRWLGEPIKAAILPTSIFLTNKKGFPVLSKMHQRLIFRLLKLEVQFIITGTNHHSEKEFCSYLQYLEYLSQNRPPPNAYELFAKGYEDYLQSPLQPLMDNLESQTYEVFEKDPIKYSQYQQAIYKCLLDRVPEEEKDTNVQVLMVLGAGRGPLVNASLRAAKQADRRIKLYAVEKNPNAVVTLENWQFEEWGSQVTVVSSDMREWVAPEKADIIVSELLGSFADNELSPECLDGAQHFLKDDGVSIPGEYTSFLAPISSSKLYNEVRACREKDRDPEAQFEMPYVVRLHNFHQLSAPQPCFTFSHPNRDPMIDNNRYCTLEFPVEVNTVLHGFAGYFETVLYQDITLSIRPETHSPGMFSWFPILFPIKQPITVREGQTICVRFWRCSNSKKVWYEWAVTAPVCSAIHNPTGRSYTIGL
T1 sequence (Q9BQA1 whole entry partner): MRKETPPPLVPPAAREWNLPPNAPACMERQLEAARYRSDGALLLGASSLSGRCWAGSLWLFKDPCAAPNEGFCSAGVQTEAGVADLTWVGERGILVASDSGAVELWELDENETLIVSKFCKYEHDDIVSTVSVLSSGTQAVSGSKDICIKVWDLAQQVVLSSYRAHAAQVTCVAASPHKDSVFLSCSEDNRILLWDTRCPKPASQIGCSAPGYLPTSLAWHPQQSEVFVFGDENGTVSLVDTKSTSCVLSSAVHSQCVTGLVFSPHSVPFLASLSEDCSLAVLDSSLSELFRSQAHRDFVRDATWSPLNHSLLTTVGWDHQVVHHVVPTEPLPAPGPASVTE

What is called IC50 is the point on the concentration scale where inhibition reaches its midpoint. Regarding `CCOc1cc(C(=O)N2C3CCC2COC3)ccc1C(=O)NC[C@@H](O)[C@@H]1Cc2ccc(OCc3ccnn3C)cc2CN1` [Compound 5, 4-(3-oxa-8-azabicyclo[3.2.1]octane-8-carbonyl)-2-ethoxy-N—((R)-2-hydroxy-2-((S)-7-((1-methyl-1H-pyrazol-5-yl)methoxy)-1,2,3,4-tetrahydroisoquinolin-3-yl)ethyl)benzamide], the IC50 on PRMT5 [1] was 50 to 500 nM; on PRMT5 [2], 500 to 5000 nM; on PRMT5 [3] it was 50 to 500 nM; in experiment [4], below 1000 nM; in experiment [5] it was below 1000 nM. The “SAM/MTA Ratio” value on PRMT5 [3] was “A (a Ki ratio greater than or equal to 10 fold between the Ki in the presence of SAM and the Ki in the presence of MTA)”. The “MTAP Intact/Deleted Ratio” value in experiment [5] is “C* (an IC50 ratio of less than 3 fold between the IC50 in the HAP1 MTAP-intact cell line and the HAP1 MTAP-deleted cell line)”.
Turning to `CCOc1cc(C(=O)N2[C@@H]3CCC[C@H]2COC3)ccc1C(=O)NC[C@@H](O)[C@@H]1Cc2ccc(OCc3ccnn3C)cc2CN1` [Compound 6, 4-((1R,5S)-3-oxa-9-azabicyclo[3.3.1]nonane-9-carbonyl)-2-ethoxy-N—((R)-2-hydroxy-2-((S)-7-((1-methyl-1H-pyrazol-5-yl)methoxy)-1,2,3,4-tetrahydroisoquinolin-3-yl)ethyl)benzamide], the IC50 on PRMT5 [1] was 50 to 500 nM; on PRMT5 [2] it was 500 to 5000 nM; against PRMT5 [3], 50 to 500 nM; in experiment [4], below 1000 nM; in experiment [5], below 1000 nM. Besides, the “SAM/MTA Ratio” value at PRMT5 [3] was “A (a Ki ratio greater than or equal to 10 fold between the Ki in the presence of SAM and the Ki in the presence of MTA)”. Further, in experiment [5], the “MTAP Intact/Deleted Ratio” value was “C* (an IC50 ratio of less than 3 fold between the IC50 in the HAP1 MTAP-intact cell line and the HAP1 MTAP-deleted cell line)”.
Regarding `O=C(NC[C@@H](O)[C@@H]1Cc2ccc(OCc3cnco3)cc2CN1)c1ccc(C(=O)N2[C@@H]3CCC[C@H]2COC3)cc1` [Compound 7, 4-((1R,5S)-3-oxa-9-azabicyclo[3.3.1]nonane-9-carbonyl)-N—((R)-2-hydroxy-2-((S)-7-(oxazol-5-ylmethoxy)-1,2,3,4-tetrahydroisoquinolin-3-yl)ethyl)benzamide], the IC50 on PRMT5 [1] was 50 to 500 nM; at PRMT5 [2], 500 to 5000 nM; on PRMT5 [3] it was 50 to 500 nM; in experiment [4], at least 10000 nM; in experiment [5], 1000 to 10000 nM. Further, the “SAM/MTA Ratio” value on PRMT5 [3] was “A (a Ki ratio greater than or equal to 10 fold between the Ki in the presence of SAM and the Ki in the presence of MTA)”. In experiment [5], the “MTAP Intact/Deleted Ratio” value is “B* (an IC50 ratio greater than or equal to 3 fold but lower than 10 fold between the IC50 in the HAP1 MTAP-intact cell line and the HAP1 MTAP-deleted cell line)”.
Take `Cc1ncoc1COc1ccc2c(c1)CN[C@H]([C@H](O)CNC(=O)c1ccc(C(=O)N3[C@@H]4CCC[C@H]3COC4)cc1)C2` [Compound 8, 4-((1R,5S)-3-oxa-9-azabicyclo[3.3.1]nonane-9-carbonyl)-N—((R)-2-hydroxy-2-((S)-7-((4-methyloxazol-5-yl)methoxy)-1,2,3,4-tetrahydroisoquinolin-3-yl)ethyl)benzamide]: the IC50 at PRMT5 [1] is 50 to 500 nM; at PRMT5 [2], 50 to 500 nM; at PRMT5 [3], 50 to 500 nM; in experiment [4], 1000 to 10000 nM; in experiment [5], below 1000 nM. Besides, the “SAM/MTA Ratio” value at PRMT5 [3] is “A (a Ki ratio greater than or equal to 10 fold between the Ki in the presence of SAM and the Ki in the presence of MTA)”. The “MTAP Intact/Deleted Ratio” value in experiment [5] is “A* (an IC50 ratio greater than or equal to 10 fold between the IC50 in the HAP1 MTAP-intact cell line and the HAP1 MTAP-deleted cell line)”.
`Cn1nccc1COc1ccc2c(c1)CN[C@H]([C@H](O)CNC(=O)c1ccc(C(=O)N3[C@@H]4CCC[C@H]3COC4)cc1)C2` [Compound 9, 4-((1R,5S)-3-oxa-9-azabicyclo[3.3.1]nonane-9-carbonyl)-N—((R)-2-hydroxy-2-((S)-7-((1-methyl-1H-pyrazol-5-yl)methoxy)-1,2,3,4-tetrahydroisoquinolin-3-yl)ethyl)benzamide]: the IC50 is 50 to 500 nM at PRMT5 [1]; 500 to 5000 nM at PRMT5 [2]; 50 to 500 nM on PRMT5 [3]; at least 10000 nM in experiment [4]; 1000 to 10000 nM in experiment [5]. The “SAM/MTA Ratio” value at PRMT5 [3] is “A (a Ki ratio greater than or equal to 10 fold between the Ki in the presence of SAM and the Ki in the presence of MTA)”. Besides, the “MTAP Intact/Deleted Ratio” value in experiment [5] is “B* (an IC50 ratio greater than or equal to 3 fold but lower than 10 fold between the IC50 in the HAP1 MTAP-intact cell line and the HAP1 MTAP-deleted cell line)”.
Consider `CCOc1cc(C(=O)N2[C@@H]3CCC[C@H]2COC3)ccc1C(=O)NC[C@@H](O)[C@@H]1Cc2ccc(OCc3ocnc3C)cc2CN1` [Compound 10, 4-((1R,5S)-3-oxa-9-azabicyclo[3.3.1]nonane-9-carbonyl)-2-ethoxy-N—((R)-2-hydroxy-2-((S)-7-((4-methyloxazol-5-yl)methoxy)-1,2,3,4-tetrahydroisoquinolin-3-yl)ethyl)benzamide], for which the IC50 was 50 to 500 nM on PRMT5 [1]; 50 to 500 nM on PRMT5 [2]; below 50 nM against PRMT5 [3]; 1000 to 10000 nM in experiment [4]; below 1000 nM in experiment [5]. The “SAM/MTA Ratio” value at PRMT5 [3] is “A (a Ki ratio greater than or equal to 10 fold between the Ki in the presence of SAM and the Ki in the presence of MTA)”. The “MTAP Intact/Deleted Ratio” value in experiment [5] was “A* (an IC50 ratio greater than or equal to 10 fold between the IC50 in the HAP1 MTAP-intact cell line and the HAP1 MTAP-deleted cell line)”.
As for `CCOc1cc(C(=O)N2C3CCC2COC3)ccc1C(=O)NC[C@@H](O)[C@@H]1Cc2ccc(OCc3cnco3)cc2CN1` [Compound 11, 4-(3-oxa-8-azabicyclo[3.2.1]octane-8-carbonyl)-2-ethoxy-N—((R)-2-hydroxy-2-((S)-7-(oxazol-5-ylmethoxy)-1,2,3,4-tetrahydroisoquinolin-3-yl)ethyl)benzamide], the IC50 is 50 to 500 nM on PRMT5 [1]; 500 to 5000 nM on PRMT5 [2]; 50 to 500 nM against PRMT5 [3]; 1000 to 10000 nM in experiment [4]; below 1000 nM in experiment [5]. Moreover, the “SAM/MTA Ratio” value on PRMT5 [3] is “A (a Ki ratio greater than or equal to 10 fold between the Ki in the presence of SAM and the Ki in the presence of MTA)”. Besides, in experiment [5], the “MTAP Intact/Deleted Ratio” value is “B* (an IC50 ratio greater than or equal to 3 fold but lower than 10 fold between the IC50 in the HAP1 MTAP-intact cell line and the HAP1 MTAP-deleted cell line)”.
Regarding `CCOc1cc(C(=O)N2C3CCC2COC3)ccc1C(=O)NC[C@@H](O)[C@@H]1Cc2ccc(OCc3ocnc3C)cc2CN1` [Compound 12, 4-(3-oxa-8-azabicyclo[3.2.1]octane-8-carbonyl)-2-ethoxy-N—((R)-2-hydroxy-2-((S)-7-((4-methyloxazol-5-yl)methoxy)-1,2,3,4-tetrahydroisoquinolin-3-yl)ethyl)benzamide], the IC50 on PRMT5 [1] was 50 to 500 nM; on PRMT5 [2] it was 500 to 5000 nM; against PRMT5 [3] it was 50 to 500 nM; in experiment [4], below 1000 nM; in experiment [5], below 1000 nM. Besides, on PRMT5 [3], the “SAM/MTA Ratio” value was “A (a Ki ratio greater than or equal to 10 fold between the Ki in the presence of SAM and the Ki in the presence of MTA)”. In addition, the “MTAP Intact/Deleted Ratio” value in experiment [5] was “B* (an IC50 ratio greater than or equal to 3 fold but lower than 10 fold between the IC50 in the HAP1 MTAP-intact cell line and the HAP1 MTAP-deleted cell line)”.
Regarding `CCOc1cc(C(=O)N2[C@@H]3CCC[C@H]2COC3)ccc1C(=O)NC[C@@H](O)[C@@H]1Cc2ccc(OCc3cnco3)cc2CN1` [Compound 13, 4-((1R,5S)-3-oxa-9-azabicyclo[3.3.1]nonane-9-carbonyl)-2-ethoxy-N—((R)-2-hydroxy-2-((S)-7-(oxazol-5-ylmethoxy)-1,2,3,4-tetrahydroisoquinolin-3-yl)ethyl)benzamide], the half-maximal inhibitory concentration (IC50) at PRMT5 [1] was 50 to 500 nM; at PRMT5 [2], 500 to 5000 nM; against PRMT5 [3] it was 50 to 500 nM; in experiment [4] it was 1000 to 10000 nM; in experiment [5] it was below 1000 nM. Besides, on PRMT5 [3], the “SAM/MTA Ratio” value was “A (a Ki ratio greater than or equal to 10 fold between the Ki in the presence of SAM and the Ki in the presence of MTA)”. For the same compound, the “MTAP Intact/Deleted Ratio” value in experiment [5] is “A* (an IC50 ratio greater than or equal to 10 fold between the IC50 in the HAP1 MTAP-intact cell line and the HAP1 MTAP-deleted cell line)”.
